Data reported in patent US12606561B2, “Substituted pyrazolo[1,5-a][1,3,5]triazines as CDK inhibitors” (QURIENT CO., LTD., priority 2018, dated 2026).

Experiments:
CDK2/Cyclin A = target: T1, CDK2/Cyclin A (Homo sapiens, UniProt P24941); assay: Enzymatic assay for CDK2 (LANCE Ultra kinase assay, FRET based); assay type: biochemical; conditions: ATP at Km
T1 construct: purchased Invitrogen PV6290
Summary of the method: (§1)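 Inhibition was measured at ATP Km with 68 nM ULight-MBP peptide and CDK2/Cyclin A ([…]) or CDK5/p25 ([…]), using 8-dose 4-fold compound dilutions from DMSO. Kinase reaction ran 60 min at 23° C, then Eu anti-phospho-MBP plus EDTA were added for another 60 min before the fluorescence read.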

CDK1/Cyclin B = target: T2, CDK1/Cyclin B (Homo sapiens, UniProt P06493); assay: Enzymatic assay for CDK1 (LANCE Ultra kinase assay, FRET based); assay type: biochemical; conditions: ATP at Km; read-out: CDK1 enzymatic activity IC50
T2 construct: purchased Invitrogen PR4768C
Summary of the method: (§2)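 TR-FRET (LANCE Ultra) kinase assays with a ULight-labelled peptide substrate and a Europium-labelled anti-phospho antibody. ATP was set at its Km for each kinase. Inhibition was measured on purified CDK/cyclin complexes: CDK7/Cyclin H/MNAT1 and CDK1/Cyclin B.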

CDK7/Cyclin H/MNAT1 = target: T3, CDK7/Cyclin H/MNAT1 (Homo sapiens, UniProt P50613); assay: Enzymatic assay for CDK7 (LANCE Ultra kinase assay, FRET based); assay type: biochemical; conditions: for IC50: ATP at Km
T3 construct: purchased Invitrogen PR6749B
Summary of the method: as §2

A2780 = A2780 viability assay (CellTiter-Glo, 72 hours); assay type: cell-based; conditions: Homo sapiens; A2780 cells
Summary of the method: (§3)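 Cells in RPMI-1640 with 10% FBS were seeded (MV4-11 1×10^4, OVCAR-3 5×10^3, A2780 1×10^3 cells/well) and treated 24 h later with compound at 0.0015–10 uM, final DMSO under 0.1%. After 72 h at 37 °C, viability was read by CellTiter-Glo luminescence, in duplicate.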

OVCAR-3 = OVCAR-3 viability assay (CellTiter-Glo, 72 hours); assay type: cell-based; conditions: Homo sapiens; OVCAR-3 cells
Summary of the method: as §3

CDK5/p25 = target: T4, CDK5/p25 (Homo sapiens, UniProt Q00535); assay: Enzymatic assay for CDK5 (LANCE Ultra kinase assay, FRET based); assay type: biochemical; conditions: ATP at Km
T4 construct: purchased Invitrogen PR8543B
Summary of the method: as §1

T3 sequence (P50613 whole entry): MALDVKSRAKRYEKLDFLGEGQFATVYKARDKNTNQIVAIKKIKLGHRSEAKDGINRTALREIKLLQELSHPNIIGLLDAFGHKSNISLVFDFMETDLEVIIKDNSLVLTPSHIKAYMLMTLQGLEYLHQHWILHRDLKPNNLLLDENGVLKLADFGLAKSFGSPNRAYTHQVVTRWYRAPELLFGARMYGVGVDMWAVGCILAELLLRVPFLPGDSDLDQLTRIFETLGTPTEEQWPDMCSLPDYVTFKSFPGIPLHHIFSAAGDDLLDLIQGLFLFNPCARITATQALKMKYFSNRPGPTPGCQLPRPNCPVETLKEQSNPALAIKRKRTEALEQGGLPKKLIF
T3 sequence (P51946 whole entry partner): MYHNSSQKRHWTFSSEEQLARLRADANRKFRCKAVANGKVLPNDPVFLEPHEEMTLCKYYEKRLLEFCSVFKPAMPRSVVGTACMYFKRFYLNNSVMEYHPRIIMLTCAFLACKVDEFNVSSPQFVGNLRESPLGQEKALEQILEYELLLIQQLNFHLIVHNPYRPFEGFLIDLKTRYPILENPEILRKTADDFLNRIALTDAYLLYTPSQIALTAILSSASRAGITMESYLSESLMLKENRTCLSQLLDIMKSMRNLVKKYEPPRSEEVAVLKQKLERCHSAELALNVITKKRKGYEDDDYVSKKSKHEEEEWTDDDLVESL
T3 sequence (P51948 whole entry partner): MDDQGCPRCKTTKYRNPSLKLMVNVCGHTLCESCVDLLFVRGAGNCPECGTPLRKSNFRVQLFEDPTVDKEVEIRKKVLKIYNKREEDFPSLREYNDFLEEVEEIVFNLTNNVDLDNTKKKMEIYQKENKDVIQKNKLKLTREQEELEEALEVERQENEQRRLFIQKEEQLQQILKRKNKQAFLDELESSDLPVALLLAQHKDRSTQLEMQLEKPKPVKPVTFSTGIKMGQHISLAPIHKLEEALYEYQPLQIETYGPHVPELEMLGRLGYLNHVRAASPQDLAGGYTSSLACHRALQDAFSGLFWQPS
T4 sequence (Q00535 whole entry): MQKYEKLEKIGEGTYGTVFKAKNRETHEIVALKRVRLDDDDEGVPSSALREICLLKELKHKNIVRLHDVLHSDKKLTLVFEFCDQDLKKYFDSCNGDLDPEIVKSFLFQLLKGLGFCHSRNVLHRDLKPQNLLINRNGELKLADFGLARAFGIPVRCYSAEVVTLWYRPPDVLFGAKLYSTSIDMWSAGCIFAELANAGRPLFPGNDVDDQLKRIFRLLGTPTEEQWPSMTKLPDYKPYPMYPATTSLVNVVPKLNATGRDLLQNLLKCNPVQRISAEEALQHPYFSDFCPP
T4 sequence (Q15078 99-307 partner limits assumed): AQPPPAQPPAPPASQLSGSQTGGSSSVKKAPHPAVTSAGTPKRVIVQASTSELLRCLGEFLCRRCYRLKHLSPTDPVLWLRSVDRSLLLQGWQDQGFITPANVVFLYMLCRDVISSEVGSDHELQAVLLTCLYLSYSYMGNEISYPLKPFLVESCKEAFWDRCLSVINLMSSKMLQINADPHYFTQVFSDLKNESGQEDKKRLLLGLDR
T2 sequence (P06493 whole entry): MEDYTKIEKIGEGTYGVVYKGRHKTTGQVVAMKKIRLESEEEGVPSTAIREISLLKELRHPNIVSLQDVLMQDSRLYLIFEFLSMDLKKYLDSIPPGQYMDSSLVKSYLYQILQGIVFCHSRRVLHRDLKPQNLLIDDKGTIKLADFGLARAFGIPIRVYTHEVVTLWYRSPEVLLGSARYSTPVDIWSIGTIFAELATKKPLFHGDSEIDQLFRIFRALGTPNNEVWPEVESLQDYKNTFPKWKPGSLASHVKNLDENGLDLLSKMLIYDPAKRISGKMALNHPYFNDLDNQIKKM
T2 sequence (P14635 whole entry partner): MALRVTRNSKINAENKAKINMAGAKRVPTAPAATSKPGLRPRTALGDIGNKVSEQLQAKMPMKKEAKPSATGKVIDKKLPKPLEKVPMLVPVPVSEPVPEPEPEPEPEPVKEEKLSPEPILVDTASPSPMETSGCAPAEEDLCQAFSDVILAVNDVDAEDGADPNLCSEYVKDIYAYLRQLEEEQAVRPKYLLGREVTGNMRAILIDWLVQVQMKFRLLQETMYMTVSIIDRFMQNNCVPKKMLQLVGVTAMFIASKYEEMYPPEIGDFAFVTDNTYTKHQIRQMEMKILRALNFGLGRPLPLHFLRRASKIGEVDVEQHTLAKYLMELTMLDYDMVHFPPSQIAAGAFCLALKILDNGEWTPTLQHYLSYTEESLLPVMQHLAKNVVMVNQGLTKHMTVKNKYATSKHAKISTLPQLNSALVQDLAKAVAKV

SMILES	IC50 (CDK2/Cyclin A)	IC50 (CDK1/Cyclin B)	IC50 (CDK7/Cyclin H/MNAT1)	CDK1/CDK7: Selectivity of CDK7 inhibition over CDK1 inhibition (CDK7/Cyclin H/MNAT1)	CDK2/CDK7: Selectivity of CDK7 inhibition over CDK2 inhibition (CDK7/Cyclin H/MNAT1)	CDK5/CDK7: Selectivity of CDK7 inhibition over CDK5 inhibition (CDK7/Cyclin H/MNAT1)	IC50 (A2780)	IC50 (OVCAR-3)	IC50 (CDK5/p25)
CC(C)c1cnn2c(NCc3ccccc3-c3nccc4cc(NC(=O)/C=C/CN(C)C)ccc34)nc(NC3CC4CCC(C3)N4C)nc12 (stereo not drawn) [Compound 130]	> 1 µM	> 1 µM	< 0.1 µM	A (A indicates [fold] > 500)	A (A indicates [fold] > 500)	A (A indicates [fold] > 500)	< 1 µM	1 to 10 µM	> 1 µM
C=C(F)C(=O)Nc1ccc2c(-c3ccccc3CNc3nc(O[C@@H]4CCCNC4)nc4c(C(C)C)cnn34)nccc2c1 [Compound 137]	> 1 µM	> 1 µM	< 0.1 µM	A (A indicates [fold] > 500)	A (A indicates [fold] > 500)	A (A indicates [fold] > 500)	< 1 µM	< 1 µM	> 1 µM
C=C(F)C(=O)Nc1ccc2c(-c3ccccc3CNc3cc(C)nc4c(C(C)C)cnn34)nccc2c1 [Compound 156]	> 1 µM	> 1 µM	0.1 to 1 µM	B (B indicates 50 < [fold] ≤ 500)	B (B indicates 50 < [fold] ≤ 500)	B (B indicates 50 < [fold] ≤ 500)	< 1 µM	1 to 10 µM	> 1 µM
C=C(F)C(=O)Nc1ccc2c(-c3ccccc3CNc3nc(NC[C@@H]4CCNC[C@H]4O)nc4c(C(C)C)cnn34)nccc2c1 [Compound 157]	> 1 µM	> 1 µM	< 0.1 µM	B (B indicates 50 < [fold] ≤ 500)	B (B indicates 50 < [fold] ≤ 500)	B (B indicates 50 < [fold] ≤ 500)	< 1 µM	1 to 10 µM	> 1 µM
C=C(F)C(=O)Nc1ccc2c(-c3ccccc3CNc3nc(NC[C@H]4CCNC[C@H]4O)nc4c(C(C)C)cnn34)nccc2c1 [Compound 158]	> 1 µM	> 1 µM	< 0.1 µM	A (A indicates [fold] > 500)	A (A indicates [fold] > 500)	A (A indicates [fold] > 500)	< 1 µM	< 1 µM	> 1 µM
C=C(F)C(=O)Nc1ccc2c(-c3ccccc3CNc3nc(O[C@H]4CCCNC4)nc4c(C(C)C)cnn34)nccc2c1 [Compound 159]	> 1 µM	> 1 µM	0.1 to 1 µM	B (B indicates 50 < [fold] ≤ 500)	B (B indicates 50 < [fold] ≤ 500)	B (B indicates 50 < [fold] ≤ 500)	< 1 µM	1 to 10 µM	> 1 µM
C=C(F)C(=O)Nc1ccc2c(-c3ccccc3CNc3nc(N[C@H]4CCCNC4)nc4c(C(C)C)cnn34)nccc2c1 [Compound 161]	> 1 µM	> 1 µM	< 0.1 µM	A (A indicates [fold] > 500)	A (A indicates [fold] > 500)	A (A indicates [fold] > 500)	< 1 µM	< 1 µM	> 1 µM
C=C(F)C(=O)Nc1ccc2c(-c3ccccc3CNc3nc(N[C@@H]4CC[C@@H](C)NC4)nc4c(C(C)C)cnn34)nccc2c1 [Compound 163]	> 1 µM	> 1 µM	< 0.1 µM	A (A indicates [fold] > 500)	A (A indicates [fold] > 500)	A (A indicates [fold] > 500)	< 1 µM	< 1 µM	> 1 µM

The next lines start with the values.

IC50 (CDK2/Cyclin A)	IC50 (CDK1/Cyclin B)	IC50 (CDK7/Cyclin H/MNAT1)	CDK1/CDK7: Selectivity of CDK7 inhibition over CDK1 inhibition (CDK7/Cyclin H/MNAT1)	CDK2/CDK7: Selectivity of CDK7 inhibition over CDK2 inhibition (CDK7/Cyclin H/MNAT1)	CDK5/CDK7: Selectivity of CDK7 inhibition over CDK5 inhibition (CDK7/Cyclin H/MNAT1)	IC50 (A2780)	IC50 (OVCAR-3)	IC50 (CDK5/p25)	SMILES
> 1 µM	> 1 µM	< 0.1 µM	A (A indicates [fold] > 500)	A (A indicates [fold] > 500)	A (A indicates [fold] > 500)	< 1 µM	< 1 µM	> 1 µM	CC(C)c1cnn2c(NCc3ccccc3-c3nccc4cc(NC(=O)/C=C/CN(C)C)ccc34)nc(NCC3CCN(C)CC3)nc12 [Compound 133]
> 1 µM	> 1 µM	< 0.1 µM	A (A indicates [fold] > 500)	A (A indicates [fold] > 500)	A (A indicates [fold] > 500)	< 1 µM	< 1 µM	> 1 µM	CC(C)c1cnn2c(NCc3ccccc3-c3nccc4cc(NC(=O)/C=C/CN(C)C)ccc34)nc(NC3CCC(F)(F)CC3)nc12 [Compound 147]
> 1 µM	> 1 µM	< 0.1 µM	A (A indicates [fold] > 500)	A (A indicates [fold] > 500)	A (A indicates [fold] > 500)	< 1 µM	< 1 µM	> 1 µM	CC(C)c1cnn2c(NCc3ccccc3-c3nccc4cc(NC(=O)/C=C/CN(C)C)ccc34)nc(N[C@@H]3CCCNC3)nc12 [Compound 150]
> 1 µM	> 1 µM	< 0.1 µM	A (A indicates [fold] > 500)	A (A indicates [fold] > 500)	A (A indicates [fold] > 500)	< 1 µM	< 1 µM	> 1 µM	CC(C)c1cnn2c(NCc3ccccc3-c3nccc4cc(NC(=O)/C=C/CN(C)C)ccc34)nc(N[C@H]3CC[C@H](C)NC3)nc12 [Compound 151]
> 1 µM	> 1 µM	< 0.1 µM	A (A indicates [fold] > 500)	A (A indicates [fold] > 500)	A (A indicates [fold] > 500)	< 1 µM	< 1 µM	> 1 µM	Cc1cc(NCc2ccccc2-c2nccc3cc(NC(=O)/C=C/CN(C)C)ccc23)n2ncc(C(C)C)c2n1 [Compound 153]
> 1 µM	> 1 µM	< 0.1 µM	A (A indicates [fold] > 500)	A (A indicates [fold] > 500)	A (A indicates [fold] > 500)	< 1 µM	1 to 10 µM	> 1 µM	CC(C)c1cnn2c(NCc3ccccc3-c3nccc4cc(NC(=O)/C=C/CN(C)C)ccc34)nc(N[C@@H]3CC[C@@H](C)NC3)nc12 [Compound 154]
> 1 µM	> 1 µM	< 0.1 µM	A (A indicates [fold] > 500)	A (A indicates [fold] > 500)	A (A indicates [fold] > 500)	< 1 µM	< 1 µM	> 1 µM	C=C(F)C(=O)Nc1ccc2c(-c3ccccc3CNc3nc(NCC4CCNCC4O)nc4c(C(C)C)cnn34)nccc2c1 (stereo not drawn) [Compound 160]
> 1 µM	> 1 µM	< 0.1 µM	A (A indicates [fold] > 500)	A (A indicates [fold] > 500)	A (A indicates [fold] > 500)	< 1 µM	1 to 10 µM	> 1 µM	C=C(F)C(=O)Nc1ccc2c(-c3ccccc3CNc3nc(NC[C@@H]4CCNC[C@@H]4O)nc4c(C(C)C)cnn34)nccc2c1 [Compound 162]
> 1 µM	> 1 µM	< 0.1 µM	A (A indicates [fold] > 500)	A (A indicates [fold] > 500)	A (A indicates [fold] > 500)	< 1 µM	< 1 µM	> 1 µM	C=C(F)C(=O)Nc1ccc2c(-c3ccccc3CNc3nc(NC[C@H]4CCN(C)C[C@@H]4O)nc4c(C(C)C)cnn34)nccc2c1 [Compound 164]
